Measurements as given in patent publication US7476687B2, “Substituted furo[2,3-g]indazoles for the treatment of glaucoma” (Alcon, Inc., priority 2003, dated 2009).
Structures can show the parent of a compound that is named as a salt.

Assays:
5HT2A(rat) [1] = target: T1, 5HT2A(rat) (Rattus norvegicus, UniProt P14842); assay: 5HT2 Functional Assay: [Ca2+]i Mobilization (FLIPR, A7r5 cells); format: cell-based; parameters: endogenous in cells; host or cells: A7r5 rat vascular smooth muscle cells; details: for EC50: [Ca2+]i mobilization, rat vascular smooth muscle cells A7r5; for Emax: percentage of maximum 5-HT-induced response, A7r5 cells
Experimental: The receptor-mediated mobilization on intracellular calcium ([Ca^2+]i) was studied using the Fluorescence Imaging Plate Reader (FLIPR) instrument. Rat vascular smooth muscle cells, A7r5, were grown in a normal media of DMEM/10% FBS and 10 μg/mL gentamycin. Confluent cell monolayers were trypsinized, pelleted, and re-suspended in normal media. Cells were seeded in a 50 μL volume at a density of 20,000 cells/well in a black wall, 96-well tissue culture plate and grown for 2 days.
On the day of the experiment, one vial of FLIPR Calcium Assay Kit dye was re-suspended in 50 mL of a FLIPR buffer consisting of Hank's Balanced Salt Solution (HBSS), 20 mM HEPES, and 2.5 mM probenecid, pH 7.4. Cells were loaded with the calcium-sensitive dye by addition of an equal volume (50 μL) to each well of the 96-well plate and incubated with dye for 1 h at 23° C.
Compounds were diluted 1:50 in 20% DMSO/20% Ethanol. For “hit” screening, compounds were further diluted 1:10 in FLIPR buffer and tested at a final concentration of 10 μM.
The compound plate and cell plate were placed in the FLIPR instrument. At the beginning of an experimental run, a signal test was performed to check the basal fluorescence signal from the dye-loaded cells and the uniformity of the signal across the plate. The basal fluorescence was adjusted between 8000-12000 counts by modifying the exposure time, the camera F-stop, or the laser power. Instrument settings for a typical assay were the following: laser power 0.3-0.6 W, camera F-stop F/2, and exposure time 0.4 sec. An aliquot (25 μL) of the test compound was added to the existing 100 μL dye-loaded cells at a dispensing speed of 50 μL/sec. Fluorescence data were collected in real-time at 1.0 sec intervals for the first 60 secs and at 6.0 sec intervals for an additional 120 secs.

5HT2A(rat) [2] = target: T1, 5HT2A(rat); assay: 5-HT2 Receptor Binding Assay ([125I]DOI competition, cerebral cortex homogenates); parameters: Aliquots of post mortem rat or human cerebral cortex homogenates (400 μL) dispersed in 50 mM TrisHCl buffer; from tissue; host or cells: post mortem rat cerebral cortex homogenate; details: inhibition of [125I]DOI binding
Experimental: 5-HT2 Receptor Binding Assay
Aliquots of post mortem rat or human cerebral cortex homogenates (400 μL) dispersed in 50 mM TrisHCl buffer (pH 7.4) are incubated with [^125I]DOI (80 pM final) in the absence or presence of methiothepin (10 μM final) to define total and non-specific binding, respectively, in a total volume of 0.5 mL. The assay mixture is incubated for 1 hour at 23° C. in polypropylene tubes and the assays terminated by rapid vacuum filtration over Whatman GF/B glass fiber filters previously soaked in 0.3% polyethyleneimine using ice-cold buffer. Test compounds (at different concentrations) are substituted for methiothepin. Filter-bound radioactivity is determined by scintillation spectrometry on a beta counter. The data are analyzed using a non-linear, iterative curve-fitting computer program [Trends Pharmacol. Sci., 16, 413 (1995)] to determine the compound affinity parameter. The concentration of the compound needed to inhibit the [^125I]DOI binding by 50% of the maximum is termed the IC50 or Ki value.

T1 sequence (P14842 whole entry): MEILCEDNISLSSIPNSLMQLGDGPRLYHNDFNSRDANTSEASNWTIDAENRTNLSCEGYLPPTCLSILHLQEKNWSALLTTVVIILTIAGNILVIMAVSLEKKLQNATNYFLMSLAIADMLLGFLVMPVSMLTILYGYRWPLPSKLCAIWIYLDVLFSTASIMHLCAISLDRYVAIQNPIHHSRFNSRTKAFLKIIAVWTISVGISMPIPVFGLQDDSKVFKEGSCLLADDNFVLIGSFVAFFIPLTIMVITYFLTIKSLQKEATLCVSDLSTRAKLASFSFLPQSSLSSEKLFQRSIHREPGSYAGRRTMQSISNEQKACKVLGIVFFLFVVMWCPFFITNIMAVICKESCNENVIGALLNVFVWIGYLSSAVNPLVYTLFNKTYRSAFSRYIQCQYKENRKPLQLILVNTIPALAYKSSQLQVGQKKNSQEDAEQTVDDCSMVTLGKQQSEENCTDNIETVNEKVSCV

Cc1ccc(CNC(=O)c2cc3c(ccc4cnn(C[C@H](C)N)c43)o2)o1 [Example 14, 1-((S)-2-Aminopropyl)-1H-furo[2,3-g]indazole-7-carboxylic acid (5-methyl-furan-2-ylmethyl)amide] showed an EC50 (5HT2A(rat) [1]) of 181 nM, an Emax (5HT2A(rat) [1]) of 94% and an IC50 (5HT2A(rat) [2]) of 0.3 nM.
CCNC(=O)NCc1cc2c(ccc3cnn(C[C@H](C)N)c32)o1 [Example 18, 1-[1-((S)-2-Aminopropyl)-1H-furo[2,3-g]indazol-7-ylmethyl]-3-ethylurea] gave an EC50 (5HT2A(rat) [1]) of 23 nM, an Emax (5HT2A(rat) [1]) of 87% and an IC50 (5HT2A(rat) [2]) of 4.1 nM.
With CC(=O)NCCCNC(=O)c1cc2c(ccc3cnn(C[C@H](C)N)c32)o1 [Example 12, 1-((S)-2-Amino-propyl)-1H-furo[2,3-g]indazole-7-carboxylic acid (3-acetylaminopropyl)-amide] the EC50 (5HT2A(rat) [1]) was 37 nM, the Emax (5HT2A(rat) [1]) was 95% and the IC50 (5HT2A(rat) [2]) was 1.4 nM.
With C[C@H](N)Cn1ncc2ccc3oc(CO)cc3c21 [Example 2, [1-((S)-2-Aminopropyl)-1H-furo[2,3-g]indazol-7-yl]-methanol] the melting point was 110 to 112 °C, the EC50 (5HT2A(rat) [1]) was 18 nM and the Emax (5HT2A(rat) [1]) was 86%. It also gave an IC50 (5HT2A(rat) [2]) of 0.53 nM.
CC(O)CNC(=O)c1cc2c(ccc3cnn(C[C@H](C)N)c32)o1 (stereo partly drawn) [Example 9, 1-((S)-2-Aminopropyl)-1H-furo[2,3-g]indazole-7-carboxylic acid (2-hydroxypropyl)-amide] showed an EC50 (5HT2A(rat) [1]) of 27 nM, an Emax (5HT2A(rat) [1]) of 98% and an IC50 (5HT2A(rat) [2]) of 1.5 nM.
With C[C@H](N)Cn1ncc2ccc3oc(C(=O)NCCCN4CCCC4=O)cc3c21 [Example 13, 1-((S)-2-Aminopropyl)-1H-furo[2,3-g]indazole-7-carboxylic acid [3-(2-oxo-pyrrolidin-1-yl)-propyl]-amide] the EC50 (5HT2A(rat) [1]) was 72 nM, the Emax (5HT2A(rat) [1]) was 87% and the IC50 (5HT2A(rat) [2]) was 2 nM.
In the case of C[C@H](N)Cn1ncc2ccc3oc(C(N)=O)cc3c21 (as salt: fumarate) [Example 3, 1-((S)-2-Aminopropyl)-1H-furo[2,3-g]indazole-7-carboxylic acid amide], the melting point is reported as 170 to 172 °C.
Cc1ccc(CNC(=O)c2cc3c(ccc4cnn(C[C@H](C)N)c43)o2)o1 (as salt: fumarate) [Example 14, 1-((S)-2-Aminopropyl)-1H-furo[2,3-g]indazole-7-carboxylic acid (5-methyl-furan-2-ylmethyl)amide] gave a melting point of 118 to 120 °C.
With C[C@H](N)Cn1ncc2ccc3oc(CNC(=O)c4cccnc4)cc3c21 [Example 17] the EC50 (5HT2A(rat) [1]) was 22 nM, the Emax (5HT2A(rat) [1]) was 95% and the IC50 (5HT2A(rat) [2]) was 3 nM.
Work on CNC(=O)Cc1cc2c(ccc3cnn(C[C@H](C)N)c32)o1 [Example 16, 2-[1-((S)-2-Amino-propyl)-1H-furo[2,3-g]indazol-7-yl]-N-methyl-acetamide] yielded an EC50 (5HT2A(rat) [1]) of 28 nM, an Emax (5HT2A(rat) [1]) of 97% and an IC50 (5HT2A(rat) [2]) of 0.7 nM.
Compound CC(=O)NCCCNC(=O)c1cc2c(ccc3cnn(C[C@H](C)N)c32)o1 (as salt: fumarate) [Example 12, 1-((S)-2-Amino-propyl)-1H-furo[2,3-g]indazole-7-carboxylic acid (3-acetylaminopropyl)-amide] has a melting point of 81 °C.
With COCCNC(=O)c1cc2c(ccc3cnn(C[C@H](C)N)c32)o1 [Example 8, 1-((S)-2-Aminopropyl)-1H-furo[2,3-g]indazole-7-carboxylic acid (2-methoxyethyl)-amide] the EC50 (5HT2A(rat) [1]) was 54 nM, the Emax (5HT2A(rat) [1]) was 94% and the IC50 (5HT2A(rat) [2]) was 2.3 nM.
Compound Cc1noc(-c2cc3c(ccc4cnn(C[C@H](C)N)c43)o2)n1 [Example 15, (S)-1-Methyl-2-[7-(3-methyl-1,2,4-oxadiazol-5-yl)-furo[2,3-g]indazol-1-yl]-ethylamine] has an EC50 (5HT2A(rat) [1]) of 283 nM, an Emax (5HT2A(rat) [1]) of 101% and an IC50 (5HT2A(rat) [2]) of 0.9 nM.
Compound CCOC(=O)c1cc2c(ccc3cnn(C[C@H](C)N)c32)o1.O=C(O)/C=C/C(=O)O [Example 1, 1-((S)-2-Aminopropyl)-1H-furo[2,3-g]indazole-7-carboxylic acid ethyl ester fumarate] has a melting point of 184 to 185 °C, an EC50 (5HT2A(rat) [1]) of 63 nM and an Emax (5HT2A(rat) [1]) of 101%. The IC50 (5HT2A(rat) [2]) was 0.21 nM.
C[C@H](N)Cn1ncc2ccc3oc(CN4CCN(c5ccccn5)CC4)cc3c21 [Example 20, (S)-1-Methyl-2-[7-(4-pyridin-2-yl-piperazin-1-ylmethyl)-furo[2,3-g]indazol-1-yl]-ethylamine] showed an EC50 (5HT2A(rat) [1]) of 141 nM and an Emax (5HT2A(rat) [1]) of 81%.
For C[C@H](N)Cn1ncc2ccc3oc(C(=O)NCCO)cc3c21 [Example 5, 1-((S)-2-Aminopropyl)-1H-furo[2,3-g]indazole-7-carboxylic acid (2-hydroxyethyl)-amide fumarate], the EC50 (5HT2A(rat) [1]) was 55 nM, the Emax (5HT2A(rat) [1]) was 94% and the IC50 (5HT2A(rat) [2]) was 3.5 nM.
Work on Cc1noc(-c2cc3c(ccc4cnn(C[C@H](C)N)c43)o2)n1 (as salt: fumarate) [Example 15, (S)-1-Methyl-2-[7-(3-methyl-1,2,4-oxadiazol-5-yl)-furo[2,3-g]indazol-1-yl]-ethylamine] yielded a melting point of 187 to 189 °C.
In the case of CC(O)CNC(=O)c1cc2c(ccc3cnn(C[C@H](C)N)c32)o1 (stereo partly drawn) (as salt: fumarate) [Example 9, 1-((S)-2-Aminopropyl)-1H-furo[2,3-g]indazole-7-carboxylic acid (2-hydroxypropyl)-amide], the melting point is reported as 190 to 191 °C.
For C[C@H](N)Cn1ncc2ccc3oc(C(=O)NCC4(O)CC4)cc3c21 (as salt: fumarate) [Example 10, 1-((S)-2-Aminopropyl)-1H-furo[2,3-g]indazole-7-carboxylic acid (1-hydroxy-cyclopropylmethyl)-amide], the melting point was 77 to 79 °C.
Compound COCCNC(=O)c1cc2c(ccc3cnn(C[C@H](C)N)c32)o1 (as salt: fumarate) [Example 8, 1-((S)-2-Aminopropyl)-1H-furo[2,3-g]indazole-7-carboxylic acid (2-methoxyethyl)-amide] has a melting point of 75 to 76 °C.
Work on C[C@H](N)Cn1ncc2ccc3oc(C(=O)NCCc4cnc[nH]4)cc3c21.O=C(O)/C=C/C(=O)O [Example 6, 1-((S)-2-Aminopropyl)-1H-furo[2,3-g]indazole-7-carboxylic acid [2-(3H-imidazol-4-yl)-ethyl]-amide fumarate] yielded a melting point of 201 to 203 °C, an EC50 (5HT2A(rat) [1]) of 57 nM and an Emax (5HT2A(rat) [1]) of 95%. The IC50 (5HT2A(rat) [2]) was 0.66 nM.
With C[C@H](N)Cn1ncc2ccc3oc(C(=O)NCCCN4CCCC4=O)cc3c21 (as salt: fumarate) [Example 13, 1-((S)-2-Aminopropyl)-1H-furo[2,3-g]indazole-7-carboxylic acid [3-(2-oxo-pyrrolidin-1-yl)-propyl]-amide] the melting point was 82 °C.
For C[C@H](N)Cn1ncc2ccc3oc(C(=O)NCCN4CCOCC4)cc3c21 [Example 7, 1-((S)-2-Aminopropyl)-1H-furo[2,3-g]indazole-7-carboxylic acid (2-morpholin-4-yl-ethyl)-amide], the EC50 (5HT2A(rat) [1]) was 109 nM, the Emax (5HT2A(rat) [1]) was 89% and the IC50 (5HT2A(rat) [2]) was 1.3 nM.
With C[C@H](N)Cn1ncc2ccc3oc(C(=O)NCC(C)(C)CO)cc3c21 (as salt: fumarate) [Example 11, 1-((S)-2-Aminopropyl)-1H-furo[2,3-g]indazole-7-carboxylic acid (3-hydroxy-2,2-dimethyl-propyl)-amide] the melting point was 103 °C.
With C[C@H](N)Cn1ncc2ccc3oc(C(=O)NCC4(O)CC4)cc3c21 [Example 10, 1-((S)-2-Aminopropyl)-1H-furo[2,3-g]indazole-7-carboxylic acid (1-hydroxy-cyclopropylmethyl)-amide] the EC50 (5HT2A(rat) [1]) was 15 nM, the Emax (5HT2A(rat) [1]) was 94% and the IC50 (5HT2A(rat) [2]) was 1.1 nM.
In the case of CC(=O)Nc1ccc(S(=O)(=O)NCc2cc3c(ccc4cnn(C[C@H](C)N)c43)o2)cc1 [Example 19, N-(4-{[1-((S)-2-Aminopropyl)-1H-furo[2,3-g]indazol-7-ylmethyl]-sulfamoyl}-phenyl)-acetamide], the melting point is reported as 80 to 85 °C, the EC50 (5HT2A(rat) [1]) is reported as 131 nM and the Emax (5HT2A(rat) [1]) is reported as 82%. It also gave an IC50 (5HT2A(rat) [2]) of 4.1 nM.
